Measured values: patent US10604511B2, “N-[(pyrazinyloxy)propanyl]benzamides as antagonists of orexin subtype 1 receptor activity” (Boehringer Ingelheim International GmbH, priority 2016, dated 2020)
Like-named read-outs stand apart in the source and are kept apart here.

How the values were obtained:
human Orexin 1 receptor = target: T1, human Orexin 1 receptor (Homo sapiens, UniProt O43613); assay: Assay A: in vitro testing of OX1R potency, OX1R IP1; type: cell-based; conditions: Table 3, read-out: Assay A OX1R Kb [nM] (Orexin A concentration)
T1 construct: stably expressing the full-length human Orexin 1 receptor; expressed in transfected cells; host or cells: CHO-K1 (CHO-K1/hOx1)
T1 sequence (O43613 1-425): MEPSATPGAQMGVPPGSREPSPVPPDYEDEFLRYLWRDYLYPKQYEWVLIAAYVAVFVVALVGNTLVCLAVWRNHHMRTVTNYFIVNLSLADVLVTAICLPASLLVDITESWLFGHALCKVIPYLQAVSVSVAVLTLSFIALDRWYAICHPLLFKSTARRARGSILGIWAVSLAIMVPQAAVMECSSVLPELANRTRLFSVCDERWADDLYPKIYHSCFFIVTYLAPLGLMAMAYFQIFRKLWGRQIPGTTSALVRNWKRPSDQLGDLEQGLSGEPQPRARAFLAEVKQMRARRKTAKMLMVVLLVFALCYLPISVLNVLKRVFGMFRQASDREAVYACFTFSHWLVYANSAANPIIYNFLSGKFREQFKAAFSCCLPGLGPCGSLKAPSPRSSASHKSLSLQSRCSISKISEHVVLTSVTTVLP
Source text: Chem. Genomics 2009, 3, 22-32. […] AssayExplorer (Accelrys). […] Sci. 1993, 14(4), 110-112).

OX2R [1] = target: T2, OX2R (Homo sapiens, UniProt O43614); assay: OX2R in vitro potency as reported in WO2016/034882; type: cell-based; conditions: Table 1 of WO2016/034882
T2 sequence (O43614 1-444): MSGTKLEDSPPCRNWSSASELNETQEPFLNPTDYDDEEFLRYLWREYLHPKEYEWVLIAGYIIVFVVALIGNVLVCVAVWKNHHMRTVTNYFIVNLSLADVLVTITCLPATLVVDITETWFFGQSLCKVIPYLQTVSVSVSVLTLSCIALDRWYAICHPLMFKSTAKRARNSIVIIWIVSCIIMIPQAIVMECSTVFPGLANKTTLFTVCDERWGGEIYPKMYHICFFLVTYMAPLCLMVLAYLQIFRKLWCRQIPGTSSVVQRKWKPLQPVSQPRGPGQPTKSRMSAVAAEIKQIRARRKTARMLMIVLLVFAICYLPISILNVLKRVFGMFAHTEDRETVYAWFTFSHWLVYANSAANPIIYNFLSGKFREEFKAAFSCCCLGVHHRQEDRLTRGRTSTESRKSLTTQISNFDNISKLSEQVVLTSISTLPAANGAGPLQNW

[2] = Assay C: metabolic stability in human liver microsomes (human MST); type: in vitro ADME; conditions: for half-life at 1 μM: pH 7.6, pooled human liver microsomes, 1 μM test compound, 37° C., read-out: Assay C: Human MST t1/2; for stability in human liver microsomes compared with closest prior art compounds in WO2016/034882 (in words): versus closest prior art examples of WO2016/034882
Procedure: C. Assessment of Metabolic Stability in Human Liver Microsomes (Human MST) The metabolic stability of the compounds according to the invention may be investigated as follows: The metabolic degradation of the test compound is assayed at 37° C. with pooled human liver microsomes. The final incubation volume of 100 μL per time point contains TRIS buffer pH 7.6 at room temperature (0.1 M), MgCl2 (5 mM), microsomal protein (1 mg/mL) and the test compound at a final concentration of 1 μM. Following a short pre-incubation period at 37° C., the reactions are initiated by addition of beta-nicotinamide adenine dinucleotide phosphate, reduced form (NADPH, 1 mM), and terminated by transferring an aliquot into solvent after different time points. After centrifugation (10000 g, 5 min), an aliquot of the supernatant is assayed by LC-MS/MS for the amount of parent compound. The half-life (t1/2) is determined by the slope of the semi-logarithmic plot of the concentration-time profile.

OX2R [3] = target: T2, OX2R; conditions: Table 3 of WO2016/034882, cited from earlier work

Row | SMILES | Kb (human Orexin 1 receptor; 0.5 nM Orexin A) [nM] | OX2R IC50/OX1R IC50 (OX2R [1]) | Kb (human Orexin 1 receptor; 50 nM Orexin A) [nM] | half-life at 1 μM [2] [h] | stability in human liver microsomes compared with closest prior art compounds in WO2016/034882 (in words) [2] | OX2R pIC50 (OX2R [3]) | IC50 (OX2R [3]; read-out: OX2R IC50 (corresponds to pIC50) (converted)) [nM]
1 | CC[C@@H](CNc1cnc(C(F)(F)F)cn1)N(C)C(=O)c1cc(Cl)ccc1-n1nccn1 [Ex 40 in WO2016/ 034882, reference compound] | 0.73 | Table 1: 156 | – | – | – | – | –
2 | CC[C@@H](CNc1cnc(C(F)(F)F)cn1)N(CC)C(=O)c1nc(C)ccc1-n1nccn1 [Ex 70 in WO2016/ 034882] | – | – | 0.14 | 0.333 | – | 5.3 | > 5000
3 | CCN(C(=O)c1cc(F)c(F)cc1-n1nccn1)[C@@H](C)COc1cnc(C(F)(F)F)cn1 [Example 4] | 5.5 | – | – | > 2.17 | – | – | –
4 | CCN(C(=O)c1cc(F)cc(F)c1-n1nccn1)[C@@H](C)COc1cnc(C(F)(F)F)cn1 [Example 6] | 3 | – | – | > 2.17 | – | – | –
5 | CCN(C(=O)c1cc(C(F)(F)F)ccc1-n1nccn1)[C@@H](C)COc1cnc(C(F)(F)F)cn1 [Example 7] | 13 | – | – | > 2.17 | – | – | –
6 | CCN(C(=O)c1cccc(F)c1-c1nnc(C)o1)[C@@H](C)COc1cnc(C(F)(F)F)cn1 [Example 12] | 12 | – | – | > 2.17 | – | – | –
7 | CCN(C(=O)c1ccc(C)cc1-c1nnc(C)o1)[C@@H](C)COc1cnc(C(F)(F)F)cn1 [Example 14] | 4.6 | – | – | 1.48 | – | – | –
8 | CCN(C(=O)c1cccc(C)c1-c1nnc(C)o1)[C@@H](C)COc1cnc(C(F)(F)F)cn1 [Example 15] | 1.3 | – | 2.3 | 1.52 | – | – | –
9 | CCN(C(=O)c1ccc(F)cc1-c1ncccn1)[C@@H](C)COc1cnc(C(F)(F)F)cn1 [Example 27] | 1 | – | – | > 2.17 | markedly improved stability | – | –
10 | CCN(C(=O)c1ccc(F)c(F)c1-n1nccn1)[C@@H](C)COc1cnc(C(F)(F)F)cn1 [Example 33] | 2.5 | – | – | > 2.17 | – | – | –

Now from value to compound, other results behind:

Row | Kb (human Orexin 1 receptor; 0.5 nM Orexin A) [nM] | OX2R IC50/OX1R IC50 (OX2R [1]) | Kb (human Orexin 1 receptor; 50 nM Orexin A) [nM] | half-life at 1 μM [2] [h] | stability in human liver microsomes compared with closest prior art compounds in WO2016/034882 (in words) [2] | SMILES | OX2R pIC50 (OX2R [3]) | IC50 (OX2R [3]; read-out: OX2R IC50 (corresponds to pIC50) (converted)) [nM]
11 | 0.97 | – | – | > 2.17 | – | CCN(C(=O)c1ccccc1-n1nccn1)[C@@H](C)COc1cnc(C(F)(F)F)cn1 [Example 1] | – | –
12 | 4.5 | – | – | > 2.17 | – | CCN(C(=O)c1ccc(F)cc1-n1nccn1)[C@@H](C)COc1cnc(C(F)(F)F)cn1 [Example 2] | – | –
13 | 2.1 | – | – | > 2.17 | – | CCN(C(=O)c1cc(F)ccc1-n1nccn1)[C@@H](C)COc1cnc(C(F)(F)F)cn1 [Example 3] | – | –
14 | – | – | 0.8 | 1.22 | – | CCN(C(=O)c1cc(OC)ccc1-n1nccn1)[C@@H](C)COc1cnc(C(F)(F)F)cn1 [Example 8] | – | –
15 | 5.4 | – | – | 0.417 | – | CCN(C(=O)c1ccccc1-n1cccn1)[C@@H](C)COc1cnc(C(F)(F)F)cn1 [Example 9] | – | –
16 | – | – | 0.44 | 1.33 | markedly improved stability | CCN(C(=O)c1ccc(C)cc1-n1nccn1)[C@@H](C)COc1cnc(C(F)(F)F)cn1 [Example 10] | – | –
17 | 1.7 | – | 1.8 | 1.18 | – | CCN(C(=O)c1ccc(OC)cc1-n1nccn1)[C@@H](C)COc1cnc(C(F)(F)F)cn1 [Example 18] | – | –
18 | 2.1 | – | 2.1 | > 2.17 | – | CCN(C(=O)c1cccc(F)c1-n1nccn1)[C@@H](C)COc1cnc(C(F)(F)F)cn1 [Example 22] | – | –
19 | 1.1 | – | 1 | 1.52 | – | CCN(C(=O)c1ccc(Cl)cc1-n1nccn1)[C@@H](C)COc1cnc(C(F)(F)F)cn1 [Example 24] | – | –
20 | 12 | – | – | 0.383 | – | CCN(C(=O)c1ccc(C(F)(F)F)cc1-n1nccn1)[C@@H](C)COc1cnc(C(F)(F)F)cn1 [Example 25] | – | –
21 | 3.9 | – | – | 0.65 | – | CCN(C(=O)c1ccccc1-c1nc(C)no1)[C@@H](C)COc1cnc(C(F)(F)F)cn1 [Example 28] | – | –
22 | 0.64 | – | 0.51 | > 2.17 | markedly improved stability | CCN(C(=O)c1cccc(F)c1-c1ncccn1)[C@@H](C)COc1cnc(C(F)(F)F)cn1 [Example 29] | – | –
23 | 0.55 | – | 0.63 | > 2.17 | markedly improved stability | CCN(C(=O)c1ccccc1-c1ncccn1)[C@@H](C)COc1cnc(C(F)(F)F)cn1 [Example 30] | – | –
24 | 2.1 | – | – | 1.1 | – | CCN(C(=O)c1ccccc1-c1noc(C)n1)[C@@H](C)COc1cnc(C(F)(F)F)cn1 [Example 32] | – | –
